Where “and” joins values, the source holds several entries; their conditions need not be identical. Equal values may be shown once.
Species: Rattus norvegicus
Assay: DrugMatrix - Regimen: Daily Repeat
Assay type: toxicity, organism-based, Sprague-Dawley
Parameters: regimen Daily Repeat, gender Male, age 6-8 weeks
Conditions: in vivo, po, route oral GAVAGE, vehicle 100 % WATER; for ABSOLUTE BASOPHIL / ABSOLUTE LYMPHOCYTE / ABSOLUTE SEGMENTED NEUTROPHIL / BASOPHIL / EOSINOPHIL / ERYTHROCYTE COUNT / HEMATOCRIT / LEUKOCYTE COUNT / LYMPHOCYTE / MEAN CORPUSCULAR HEMOGLOBIN / MEAN CORPUSCULAR HEMOGLOBIN CONCENTRATION / MEAN CORPUSCULAR VOLUME / MONOCYTE / NEUTROPHIL / NUCLEATED RED BLOOD CELLS / PLATELET COUNT / ABSOLUTE MONOCYTE / ABSOLUTE EOSINOPHIL: tissue Blood; for ALANINE AMINOTRANSFERASE / ALBUMIN / ALKALINE PHOSPHATASE / ASPARTATE AMINOTRANSFERASE / BLOOD UREA NITROGEN / CARBON DIOXIDE / CHLORIDE / CHOLESTEROL / CREATINE PHOSPHOKINASE / CREATININE / GLUCOSE / LACTATE DEHYDROGENASE / LIPASE / PHOSPHORUS / POTASSIUM / SODIUM / TOTAL BILIRUBIN / TOTAL PROTEIN / URIC ACID: tissue Plasma
[1] = 0 mg/kg, 72 h, dose level Control, time 3 day
[2] = 0 mg/kg, 120 h, dose level Control, time 5 day
[3] = 235 mg/kg, 72 h, dose level Low, time 3 day
[4] = 235 mg/kg, 120 h, dose level Low, time 5 day
[5] = 850 mg/kg, 72 h, dose level M1, time 3 day

In the case of `CCCC(CCC)C(=O)O` [VALPROIC ACID], the “ABSOLUTE BASOPHIL” value [1] is reported as 0 CELLS/uL, the “ABSOLUTE LYMPHOCYTE” value [1] is reported as 10696 CELLS/uL and 11257.17 CELLS/uL and the “ABSOLUTE SEGMENTED NEUTROPHIL” value [1] is reported as 1045.33 CELLS/uL and 1220.33 CELLS/uL. The BASOPHIL [1] was 0%, the EOSINOPHIL [1] was 1% and 0.33% and the “ERYTHROCYTE COUNT” value [1] was 5.87 x10E6/uL and 5 x10E6/uL. For the same compound, the HEMATOCRIT [1] was 38.5% and 32.62%, the “LEUKOCYTE COUNT” value [1] was 12.07 x10E3/uL and 12.58 x10E3/uL and the LYMPHOCYTE [1] was 88.33% and 89%. For the same compound, the “MEAN CORPUSCULAR HEMOGLOBIN” value [1] was 23.47 pg and 25.67 pg, the “MEAN CORPUSCULAR HEMOGLOBIN CONCENTRATION” value [1] was 35.7 G/DL and 39.35 G/DL and the “MEAN CORPUSCULAR VOLUME” value [1] was 65.63 fL and 65.23 fL. For the same compound, the MONOCYTE [1] was 2% and 0.67%, the NEUTROPHIL [1] was 8.67% and 10% and the “NUCLEATED RED BLOOD CELLS” value [1] was 0 /100WBC. The “PLATELET COUNT” value [1] was 1151.33 x10E3/uL and 1162.5 x10E3/uL, the “ALANINE AMINOTRANSFERASE” value [1] was 60.67 u/L and 45.33 u/L and the ALBUMIN [1] was 4.23 G/DL and 3.95 G/DL. The “ALKALINE PHOSPHATASE” value [1] was 377.67 u/L and 356.17 u/L, the “ASPARTATE AMINOTRANSFERASE” value [1] was 85.33 u/L and 81 u/L and the “BLOOD UREA NITROGEN” value [1] was 15 mg/dL and 11 mg/dL. For the same compound, the “CARBON DIOXIDE” value [1] was 37 mmol/L and 29.83 mmol/L, the CHLORIDE [1] was 97.67 MEQ/L and 97.8 MEQ/L and the CHOLESTEROL [1] was 70.67 mg/dL and 65.17 mg/dL. For the same compound, the “CREATINE PHOSPHOKINASE” value [1] was 361.67 u/L and 211.33 u/L, the CREATININE [1] was 0.18 mg/dL and 0.11 mg/dL and the GLUCOSE [1] was 154 mg/dL and 164.67 mg/dL. For the same compound, the “LACTATE DEHYDROGENASE” value [1] was 99 u/L and 143.17 u/L, the LIPASE [1] was 12.67 u/L and 10.17 u/L and the PHOSPHORUS [1] was 9.53 mg/dL and 10.88 mg/dL. For the same compound, the POTASSIUM [1] was 5.55 MEQ/L and 6.08 MEQ/L, the SODIUM [1] was 143.1 MEQ/L and 141.54 MEQ/L and the “TOTAL BILIRUBIN” value [1] was 0.2 mg/dL and 0.23 mg/dL. For the same compound, the “TOTAL PROTEIN” value [1] was 5.97 G/DL and 5.65 G/DL, the “URIC ACID” value [1] was 0.77 mg/dL and 1 mg/dL and the “ABSOLUTE BASOPHIL” value [2] was 0 CELLS/uL. For the same compound, the “ABSOLUTE LYMPHOCYTE” value [2] was 9535 CELLS/uL and 9267.83 CELLS/uL, the “ABSOLUTE MONOCYTE” value [2] was 182 CELLS/uL and 194.33 CELLS/uL and the “ABSOLUTE SEGMENTED NEUTROPHIL” value [2] was 783 CELLS/uL and 572.5 CELLS/uL. For the same compound, the BASOPHIL [2] was 0%, the EOSINOPHIL [2] was 0% and 0.33% and the “ERYTHROCYTE COUNT” value [2] was 5.35 x10E6/uL and 5.41 x10E6/uL. For the same compound, the HEMATOCRIT [2] was 34.17% and 36.17%, the “LEUKOCYTE COUNT” value [2] was 10.5 x10E3/uL and 10.08 x10E3/uL and the LYMPHOCYTE [2] was 89.67% and 92.17%. For the same compound, the “MEAN CORPUSCULAR HEMOGLOBIN” value [2] was 24.67 pg and 25.73 pg, the “MEAN CORPUSCULAR HEMOGLOBIN CONCENTRATION” value [2] was 38.57 G/DL and 38.45 G/DL and the “MEAN CORPUSCULAR VOLUME” value [2] was 63.9 fL and 66.97 fL. The MONOCYTE [2] was 1.67% and 1.83%, the NEUTROPHIL [2] was 8.67% and 5.67% and the “PLATELET COUNT” value [2] was 990 x10E3/uL and 1122.33 x10E3/uL. The “ALANINE AMINOTRANSFERASE” value [2] was 46.67 u/L and 52.83 u/L, the ALBUMIN [2] was 3.97 G/DL and 4.12 G/DL and the “ALKALINE PHOSPHATASE” value [2] was 343.67 u/L and 367.33 u/L. For the same compound, the “ASPARTATE AMINOTRANSFERASE” value [2] was 71 u/L and 88 u/L, the “BLOOD UREA NITROGEN” value [2] was 11.67 mg/dL and 12.67 mg/dL and the “CARBON DIOXIDE” value [2] was 27 mmol/L and 33.67 mmol/L. For the same compound, the CHLORIDE [2] was 105.33 MEQ/L and 97 MEQ/L, the CHOLESTEROL [2] was 70.67 mg/dL and 67.5 mg/dL and the “CREATINE PHOSPHOKINASE” value [2] was 208.67 u/L and 358.67 u/L. The CREATININE [2] was 0.1 mg/dL and 0.14 mg/dL, the GLUCOSE [2] was 161.33 mg/dL and 152.33 mg/dL and the LIPASE [2] was 9.33 u/L and 10.5 u/L. For the same compound, the PHOSPHORUS [2] was 12.7 mg/dL and 10.63 mg/dL, the POTASSIUM [2] was 5.59 MEQ/L and 5.99 MEQ/L and the SODIUM [2] was 147.1 MEQ/L and 141.85 MEQ/L. The “TOTAL BILIRUBIN” value [2] was 0.17 mg/dL and 0.2 mg/dL, the “TOTAL PROTEIN” value [2] was 5.97 G/DL and 6.18 G/DL and the “URIC ACID” value [2] was 0.73 mg/dL and 0.52 mg/dL. For the same compound, the “ABSOLUTE BASOPHIL” value [3] was 0 CELLS/uL, the “ABSOLUTE EOSINOPHIL” value [3] was 39.33 CELLS/uL and the “ABSOLUTE LYMPHOCYTE” value [3] was 3794.33 CELLS/uL. For the same compound, the “ABSOLUTE MONOCYTE” value [3] was 121.33 CELLS/uL, the “ABSOLUTE SEGMENTED NEUTROPHIL” value [3] was 678.33 CELLS/uL and the BASOPHIL [3] was 0%. The EOSINOPHIL [3] was 0.67%, the “ERYTHROCYTE COUNT” value [3] was 5.06 x10E6/uL and the HEMATOCRIT [3] was 32.73%. The “LEUKOCYTE COUNT” value [3] was 4.63 x10E3/uL, the LYMPHOCYTE [3] was 81.33% and the “MEAN CORPUSCULAR HEMOGLOBIN” value [3] was 25.03 pg. For the same compound, the “MEAN CORPUSCULAR HEMOGLOBIN CONCENTRATION” value [3] was 38.63 G/DL, the “MEAN CORPUSCULAR VOLUME” value [3] was 64.7 fL and the MONOCYTE [3] was 2.67%. The NEUTROPHIL [3] was 15.33%, the “NUCLEATED RED BLOOD CELLS” value [3] was 0 /100WBC and the “PLATELET COUNT” value [3] was 772 x10E3/uL. For the same compound, the “ALANINE AMINOTRANSFERASE” value [3] was 57 u/L, the ALBUMIN [3] was 4.1 G/DL and the “ALKALINE PHOSPHATASE” value [3] was 212.67 u/L. The “ASPARTATE AMINOTRANSFERASE” value [3] was 81 u/L, the “BLOOD UREA NITROGEN” value [3] was 11 mg/dL and the “CARBON DIOXIDE” value [3] was 37.33 mmol/L. For the same compound, the CHLORIDE [3] was 98.33 MEQ/L, the CHOLESTEROL [3] was 62 mg/dL and the “CREATINE PHOSPHOKINASE” value [3] was 233 u/L. The CREATININE [3] was 0.3 mg/dL, the GLUCOSE [3] was 154 mg/dL and the “LACTATE DEHYDROGENASE” value [3] was 73 u/L. For the same compound, the LIPASE [3] was 10 u/L, the PHOSPHORUS [3] was 9.7 mg/dL and the POTASSIUM [3] was 5.09 MEQ/L. For the same compound, the SODIUM [3] was 143.63 MEQ/L, the “TOTAL BILIRUBIN” value [3] was 0.13 mg/dL and the “TOTAL PROTEIN” value [3] was 5.57 G/DL. The “URIC ACID” value [3] was 0.47 mg/dL, the “ABSOLUTE BASOPHIL” value [4] was 0 CELLS/uL and the “ABSOLUTE EOSINOPHIL” value [4] was 0 CELLS/uL. For the same compound, the “ABSOLUTE LYMPHOCYTE” value [4] was 6770.33 CELLS/uL, the “ABSOLUTE MONOCYTE” value [4] was 195 CELLS/uL and the “ABSOLUTE SEGMENTED NEUTROPHIL” value [4] was 868 CELLS/uL. The BASOPHIL [4] was 0%, the EOSINOPHIL [4] was 0% and the “ERYTHROCYTE COUNT” value [4] was 5.27 x10E6/uL. The HEMATOCRIT [4] was 33.47%, the “LEUKOCYTE COUNT” value [4] was 7.83 x10E3/uL and the LYMPHOCYTE [4] was 89%. The “MEAN CORPUSCULAR HEMOGLOBIN” value [4] was 24.47 pg, the “MEAN CORPUSCULAR HEMOGLOBIN CONCENTRATION” value [4] was 38.57 G/DL and the “MEAN CORPUSCULAR VOLUME” value [4] was 63.43 fL. The MONOCYTE [4] was 2.33%, the NEUTROPHIL [4] was 8.67% and the “NUCLEATED RED BLOOD CELLS” value [4] was 0 /100WBC. For the same compound, the “PLATELET COUNT” value [4] was 955 x10E3/uL, the “ALANINE AMINOTRANSFERASE” value [4] was 52.33 u/L and the ALBUMIN [4] was 4.03 G/DL. The “ALKALINE PHOSPHATASE” value [4] was 290.67 u/L, the “ASPARTATE AMINOTRANSFERASE” value [4] was 77.33 u/L and the “BLOOD UREA NITROGEN” value [4] was 12 mg/dL. For the same compound, the “CARBON DIOXIDE” value [4] was 28.67 mmol/L, the CHLORIDE [4] was 103.67 MEQ/L and the CHOLESTEROL [4] was 71.67 mg/dL. For the same compound, the “CREATINE PHOSPHOKINASE” value [4] was 272 u/L, the CREATININE [4] was 0.22 mg/dL and the GLUCOSE [4] was 144.33 mg/dL. The “LACTATE DEHYDROGENASE” value [4] was 50.67 u/L, the LIPASE [4] was 9.33 u/L and the PHOSPHORUS [4] was 10.47 mg/dL. For the same compound, the POTASSIUM [4] was 5.47 MEQ/L, the SODIUM [4] was 144.07 MEQ/L and the “TOTAL BILIRUBIN” value [4] was 0.13 mg/dL. For the same compound, the “TOTAL PROTEIN” value [4] was 5.93 G/DL, the “URIC ACID” value [4] was 0.43 mg/dL and the “ABSOLUTE BASOPHIL” value [5] was 0 CELLS/uL. The “ABSOLUTE EOSINOPHIL” value [5] was 40.67 CELLS/uL.
